Test results taken from ChEMBL document CHEMBL2057197, “Synthesis and evaluation of water-soluble resveratrol and piceatannol via BGLation” (Bioorg Med Chem Lett, 2012).
Active and inactive are the calls of the source. The calls are words filed in the database; no cut-off is given here.

Tests used:
3T3-L1 [1] = test: Induction of mitochondrial fusion in mouse 3T3L1 cells at 10 to 50 uM after 48 hrs by green Fm-staining; format: functional, cell-based
3T3-L1 [2] = test: Reduction in triglyceride level in mouse 3T3L1 cells at 10 to 50 uM after 48 hrs; format: functional, cell-based

Structure (SMILES) | Activity (3T3-L1 [1]) | Activity (3T3-L1 [2])
OCC(CO)OCC(COC(CO)CO)n1cc(COc2cc(O)cc(/C=C/c3ccc(O)cc3)c2)nn1 | inactive | inactive
OCC(CO)OCC(COC(CO)CO)n1cc(COc2cc(O)cc(/C=C/c3ccc4c(c3)OCO4)c2)nn1 | Active | inactive
Oc1cc(O)cc(/C=C/c2ccc(O)c(O)c2)c1 | Active | Active
OCC(CO)OCC(COC(CO)CO)n1cc(COc2cc(O)cc(/C=C/c3ccc(O)c(O)c3)c2)nn1 | Active | Active
COc1ccc(/C=C/c2cc(O)cc(OCc3cn(C(COC(CO)CO)COC(CO)CO)nn3)c2)cc1 | inactive | inactive
